From ChEMBL document CHEMBL3856229, “Hybrid Antibiotic Overcomes Resistance in P. aeruginosa by Enhancing Outer Membrane Penetration and Reducing Efflux” (J Med Chem, 2016)
In brackets after ≈: the same amount, converted by molar mass.

Assays:
[1] = tested on: Escherichia coli; assay: Antibacterial activity against amikacin-resistant Escherichia coli isolate CAN-ICU 63074 after 24 hrs by microtitre broth dilution method; assay type: functional; conditions: isolate CAN-ICU 63074, 24 h
[2] = tested on: Pseudomonas aeruginosa; assay: Antibacterial activity against multidrug/extremely drug-resistant/colistin-susceptible Pseudomonas aeruginosa isolate 264-104354; assay type: functional
[3] = tested on: Pseudomonas aeruginosa; assay: Antibacterial activity against multidrug/extremely drug-resistant/colistin-susceptible Pseudomonas aeruginosa isolate 100036; assay type: functional
[4] = tested on: Pseudomonas aeruginosa; assay: Antibacterial activity against multidrug/extremely drug-resistant/colistin-susceptible Pseudomonas aeruginosa isolate 259-96918; assay type: functional
[5] = tested on: Pseudomonas aeruginosa; assay: Antibacterial activity against multidrug/extremely drug-resistant/colistin-susceptible Pseudomonas aeruginosa isolate 260-97103; assay type: functional
[6] = tested on: Pseudomonas aeruginosa; assay: Antibacterial activity against multidrug/extremely drug-resistant/colistin-susceptible Pseudomonas aeruginosa isolate 101885; assay type: functional
[7] = tested on: Pseudomonas aeruginosa; assay: Antibacterial activity against pandrug-resistant Pseudomonas aeruginosa isolate 91433; assay type: functional
[8] = tested on: Pseudomonas aeruginosa; assay: Antibacterial activity against pandrug-resistant Pseudomonas aeruginosa isolate 101243; assay type: functional
[9] = tested on: Pseudomonas aeruginosa; assay: Antibacterial activity against multidrug/extremely drug-resistant/colistin-susceptible Pseudomonas aeruginosa isolate 262-101856; assay type: functional
[10] = tested on: Streptococcus pneumoniae; assay: Antibacterial activity against Streptococcus pneumoniae ATCC 49619 after 24 hrs by microtitre broth dilution method; assay type: functional; conditions: ATCC 49619, 24 h
[11] = tested on: Escherichia coli; assay: Antibacterial activity against gentamicin/tobramycin/ciprofloxacin-resistant Escherichia coli isolate CANWARD-2011 97615 harboring AAC3-2A after 24 hrs by microtitre broth dilution method; assay type: functional; conditions: isolate CANWARD-2011 97615, 24 h
[12] = tested on: Acinetobacter baumannii; assay: Antibacterial activity against Acinetobacter baumannii isolate CAN-ICU 63169 after 24 hrs by microtitre broth dilution method; assay type: functional; conditions: isolate CAN-ICU 63169, 24 h
[13] = tested on: Stenotrophomonas maltophilia; assay: Antibacterial activity against Stenotrophomonas maltophilia isolate CAN-ICU 62584 after 24 hrs by microtitre broth dilution method; assay type: functional; conditions: isolate CAN-ICU 62584, 24 h
[14] = tested on: Enterococcus faecium; assay: Antibacterial activity against Enterococcus faecium ATCC 27270 after 24 hrs by microtitre broth dilution method; assay type: functional; conditions: ATCC 27270, 24 h
[15] = tested on: Pseudomonas aeruginosa; assay: Antibacterial activity against gentamicin/tobramycin-resistant Pseudomonas aeruginosa isolate CANWARD-2011 96846 after 24 hrs by microtitre broth dilution method; assay type: functional; conditions: isolate CANWARD-2011 96846, 24 h
[16] = tested on: Klebsiella pneumoniae; assay: Antibacterial activity against Klebsiella pneumoniae ATCC 13883 after 24 hrs by microtitre broth dilution method; assay type: functional; conditions: ATCC 13883, 24 h
[17] = tested on: Staphylococcus epidermidis; assay: Antibacterial activity against methicillin-susceptible Staphylococcus epidermidis isolate CANWARD-2008 81388 after 24 hrs by microtitre broth dilution method; assay type: functional; conditions: isolate CANWARD-2008 81388, 24 h
[18] = tested on: Staphylococcus aureus; assay: Antibacterial activity against methicillin-resistant Staphylococcus aureus ATCC 33592 after 24 hrs by microtitre broth dilution method; assay type: functional; conditions: ATCC 33592, 24 h
[19] = tested on: Pseudomonas aeruginosa; assay: Antibacterial activity against Pseudomonas aeruginosa PAO1; assay type: functional
[20] = tested on: Escherichia coli; assay: Antibacterial activity against Escherichia coli ATCC 25922 after 24 hrs by microtitre broth dilution method; assay type: functional; conditions: ATCC 25922, 24 h
[21] = tested on: Staphylococcus epidermidis; assay: Antibacterial activity against methicillin-resistant Staphylococcus epidermidis isolate CAN-ICU 61589 after 24 hrs by microtitre broth dilution method; assay type: functional; conditions: isolate CAN-ICU 61589, 24 h
[22] = tested on: Pseudomonas aeruginosa; assay: Antibacterial activity against gentamicin-resistant Pseudomonas aeruginosa isolate CAN-ICU 62308 after 24 hrs by microtitre broth dilution method; assay type: functional; conditions: isolate CAN-ICU 62308, 24 h
[23] = tested on: Escherichia coli; assay: Antibacterial activity against gentamicin-resistant Escherichia coli isolate CAN-ICU 61714 after 24 hrs by microtitre broth dilution method; assay type: functional; conditions: isolate CAN-ICU 61714, 24 h
[24] = tested on: Enterococcus faecalis; assay: Antibacterial activity against Enterococcus faecalis ATCC 29212 after 24 hrs by microtitre broth dilution method; assay type: functional; conditions: ATCC 29212, 24 h
[25] = Inhibition of Pseudomonas aeruginosa DNA gyrase A assessed as inhibition of DNA supercoiling using PBR322 DNA as substrate after 30 mins by SYBR Gold staining based agarose gel electrophoresis
[26] = tested on: Pseudomonas aeruginosa; assay: Antibacterial activity against Pseudomonas aeruginosa ATCC 27853 after 24 hrs by microtitre broth dilution method; assay type: functional; conditions: ATCC 27853, 24 h
[27] = tested on: Staphylococcus aureus; assay: Antibacterial activity against Staphylococcus aureus ATCC 29213 after 24 hrs by microtitre broth dilution method; assay type: functional; conditions: ATCC 29213, 24 h
[28] = tested on: Pseudomonas aeruginosa; assay: Antibacterial activity against multidrug-resistant/tobramycin-susceptible Pseudomonas aeruginosa isolate 108590; assay type: functional
[29] = tested on: Pseudomonas aeruginosa; assay: Antibacterial activity against multidrug-resistant/tobramycin-susceptible Pseudomonas aeruginosa isolate 86079; assay type: functional
[30] = tested on: Pseudomonas aeruginosa; assay: Antibacterial activity against multidrug-resistant/tobramycin-susceptible Pseudomonas aeruginosa isolate 80621; assay type: functional
[31] = tested on: Pseudomonas aeruginosa; assay: Antibacterial activity against multidrug-resistant/tobramycin-susceptible Pseudomonas aeruginosa isolate 86053; assay type: functional
[32] = tested on: Pseudomonas aeruginosa; assay: Antibacterial activity against multidrug-resistant/tobramycin-susceptible Pseudomonas aeruginosa isolate 92014; assay type: functional
[33] = tested on: Pseudomonas aeruginosa; assay: Antibacterial activity against multidrug-resistant/tobramycin-susceptible Pseudomonas aeruginosa isolate 86052; assay type: functional
[34] = tested on: Pseudomonas aeruginosa; assay: Antibacterial activity against multidrug-resistant/tobramycin-susceptible Pseudomonas aeruginosa isolate 85322; assay type: functional
[35] = tested on: Pseudomonas aeruginosa; assay: Antibacterial activity against multidrug-resistant/tobramycin-susceptible Pseudomonas aeruginosa isolate 86067; assay type: functional
[36] = tested on: Pseudomonas aeruginosa; assay: Antibacterial activity against multidrug-resistant/tobramycin-susceptible Pseudomonas aeruginosa isolate 86141; assay type: functional
[37] = tested on: Pseudomonas aeruginosa; assay: Antibacterial activity against multidrug-resistant/tobramycin-susceptible Pseudomonas aeruginosa isolate 79199; assay type: functional
[38] = tested on: Pseudomonas aeruginosa; assay: Antibacterial activity against multidrug-resistant/tobramycin-susceptible Pseudomonas aeruginosa isolate 83182; assay type: functional
[39] = tested on: Pseudomonas aeruginosa; assay: Antibacterial activity against multidrug-resistant/tobramycin-susceptible Pseudomonas aeruginosa isolate 84745; assay type: functional

SMILES | MIC [1] [µg/mL] | MIC [2] [µg/mL] | MIC [4] [µg/mL] | MIC [5] [µg/mL] | MIC [9] [µg/mL] | MIC [21] [µg/mL] | MIC [28] [µg/mL] | MIC [29] [µg/mL] | MIC [30] [µg/mL] | MIC [31] [µg/mL] | MIC [32] [µg/mL] | MIC [33] [µg/mL] | MIC [34] [µg/mL] | MIC [35] [µg/mL] | MIC [36] [µg/mL] | MIC [37] [µg/mL] | MIC [38] [µg/mL] | MIC [39] [µg/mL] | other results
NCC[C@H](O)C(=O)N[C@@H]1C[C@H](N)[C@@H](O[C@H]2O[C@H](CN)[C@@H](O)[C@H](O)[C@H]2O)[C@H](O)[C@H]1O[C@H]1O[C@H](CO)[C@@H](O)[C@H](N)[C@H]1O [AMIKACIN] | 32 (≈ 54.6 µM) |  |  |  |  |  |  |  |  |  |  |  |  |  |  |  |  |  | 
C[C@@H](O)[C@H]1C(=O)N2C(C(=O)O)=C(S[C@@H]3CN[C@H](CNS(N)(=O)=O)C3)[C@H](C)[C@H]12 [DORIPENEM] |  | 16 (≈ 38 µM) | > 32 | 32 (≈ 76.1 µM) | 8 (≈ 19 µM) |  |  |  |  |  |  |  |  |  |  |  |  |  | MIC [3]: 5 µg/mL (≈ 11.9 µM); MIC [6]: 0.5 µg/mL (≈ 1.19 µM); MIC [7]: 8 µg/mL (≈ 19 µM); MIC [8]: 16 µg/mL (≈ 38 µM)
COc1c(N2C[C@@H]3CCCN(CCCCCCCCCCCCOC[C@H]4O[C@H](O[C@@H]5[C@@H](O)[C@H](O[C@H]6O[C@H](CN)[C@@H](O)C[C@H]6N)[C@@H](N)C[C@H]5N)[C@H](O)[C@@H](N)[C@@H]4O)[C@@H]3C2)c(F)cc2c(=O)c(C(=O)O)cn(C3CC3)c12.Cl.Cl.Cl.Cl.Cl | 64 | > 32 | > 32 | 32 | > 32 | 8 |  |  |  |  |  |  |  |  |  |  |  |  | MIC [10]: 64 µg/mL; MIC [11]: 128 µg/mL; MIC [12]: > 128 µg/mL; MIC [13]: > 128 µg/mL; MIC [14]: 16 µg/mL; MIC [15]: 64 µg/mL; MIC [16]: 16 µg/mL; MIC [17]: 8 µg/mL; MIC [18]: 16 µg/mL; MIC [19]: > 32 µg/mL; MIC [20]: 16 µg/mL; MIC [22]: 32 µg/mL; MIC [23]: 64 µg/mL; MIC [24]: 32 µg/mL; IC50 [25]: 2.6 µM; MIC [26]: 64 µg/mL; MIC [27]: 16 µg/mL
CC(C)(O/N=C(\C(=O)N[C@@H]1C(=O)N2C(C(=O)[O-])=C(C[n+]3ccccc3)CS[C@H]12)c1csc(N)n1)C(=O)O [CEFTAZIDIME] |  |  |  |  |  |  | 32 (≈ 58.5 µM) | > 32 | > 32 | > 32 | > 32 | > 32 | > 32 | > 32 | > 32 | 32 (≈ 58.5 µM) | > 32 | > 32 | 
C[C@@H](O)[C@H]1C(=O)N2C(C(=O)O)=C(SCCNC=N)C[C@H]12 [IMIPENEM ANHYDROUS] |  |  |  |  |  |  | 32 (≈ 107 µM) | 16 (≈ 53.4 µM) | 32 (≈ 107 µM) | 16 (≈ 53.4 µM) | 8 (≈ 26.7 µM) | 32 (≈ 107 µM) | 32 (≈ 107 µM) | > 32 | 16 (≈ 53.4 µM) | 4 (≈ 13.4 µM) | 16 (≈ 53.4 µM) | 16 (≈ 53.4 µM) | 
Cc1nnc(SCC2=C(C(=O)O)N3C(=O)[C@@H](NC(=O)Cn4cnnn4)[C@H]3SC2)s1 [CEFAZOLIN] |  |  |  |  |  | > 32 |  |  |  |  |  |  |  |  |  |  |  |  | 
